Measured values published in patent publication US20040044006A1, “Methods of use of quinolone compounds against pneumococcal and haemophilus bacteria” (priority 1999, published 2004).
≈ marks a conversion by molar mass, not a printed value.

System: quinolone-resistant Haemophilus influenzae strains
Experiment: Microdilution MIC determination in HTM for quinolone-resistant Haemophilus influenzae strains
Type: cell-based
Procedure: Inocula were prepared from chocolate agar plates incubated for a full 24 hours by the direct colony suspension method as follows: In a tube of Mueller-Hinton broth (Difco), an organism suspension was made to a density of a 0.5 McFarland standard (1×10^8 CFU/ml). The latter inoculum was diluted in sterile saline such that final organisms suspensions in trays yielded colony counts of 3-8×10^5 CFU/ml. Frozen microdilution trays were obtained from MicroMedia Systems, Inc. (Cleveland, Ohio, USA). Each tray contained all antimicrobials prepared in freshly made HTM. Wells were inoculated with 100 μl suspensions and incubated in ambient air at 35° C. for 20-24 hours. The lowest drug concentration showing no growth was read as the MIC. Standard quality control strains, including H. influenzae ATCC 49766, H. influenzae ATCC 49247, Staphylococcus aureus ATCC 29213 and Escherichia coli ATCC 25922 were included with each run.

[1] = strain 1, GyrA S84→L, ParC S133→A N138→S, GyrB None, ParE None
[2] = strain 2, GyrA S84→F, ParC None, GyrB None, ParE S458→L
[3] = strain 3, GyrA S84→L, ParC S84→I, GyrB None, ParE None
[4] = strain 4, GyrA S84→F D88→N, ParC D83→N, GyrB None, ParE T459→S
[5] = strain 5, GyrA S84→Y, ParC E88→K, GyrB Q468→R, ParE G405→S
[6] = strain 6, GyrA S84→L A117→E, ParC S84→R, GyrB None, ParE D420→N
[7] = strain 7, GyrA S84→L A117→E, ParC S84→R, GyrB None, ParE D420→N
[8] = strain 8, GyrA S84→L A117→E, ParC S84→R, GyrB None, ParE D420→N
[9] = strain 9, GyrA S84→F D88→Y, ParC S84→R N138→S, GyrB None, ParE S458→A S474→N
[10] = strain 1, mutations S133-A N138-S, None, S84-L
[11] = strain 2, mutations NONE, S458-L, S84-F, None
[12] = strain 3, mutations S84-I, None, S84-L
[13] = strain 4, mutations D83-N, S458-S-T459, S84-F D88-N, Q468-R
[14] = strain 5, mutations E88-K, G405-S, S84-Y, None
[15] = strain 6, mutations S84-R, D420-N, S84-L A117-E, None
[16] = strain 7, mutations S84-R, D420-N, S84-L A117-E, None
[17] = strain 8, mutations S84-R, D420-N, S84-L A117-E, None
[18] = strain 9, mutations S84-R N138-S, S458-A S474-N, S84-F D88-Y, None

SMILES	MICs [1]	MICs [2]	MICs [3]	MICs [4]	MICs [5]	MICs [6]	MICs [7]	MICs [8]	MICs [9]	MIC [10]	MIC [11]	MIC [12]	MIC [13]	MIC [14]	MIC [15]	MIC [16]	MIC [17]	MIC [18]
C[C@H]1COc2c(N3CCN(C)CC3)c(F)cc3c(=O)c(C(=O)O)cn1c23 [Lev]	0.5 µg/mL	0.25 µg/mL	1 µg/mL	0.5 µg/mL	1 µg/mL	2 µg/mL	2 µg/mL	2 µg/mL	4 µg/mL	–	–	–	–	–	–	–	–	–
N[C@@H]1[C@H]2CN(c3nc4c(cc3F)c(=O)c(C(=O)O)cn4-c3ccc(F)cc3F)C[C@@H]12 [Trova]	–	–	–	–	–	–	–	–	–	1 µg/mL (≈ 2.4 µM)	0.25 µg/mL (≈ 0.6 µM)	1 µg/mL (≈ 2.4 µM)	0.5 µg/mL (≈ 1.2 µM)	1 µg/mL (≈ 2.4 µM)	4 µg/mL (≈ 9.61 µM)	4 µg/mL (≈ 9.61 µM)	4 µg/mL (≈ 9.61 µM)	8 µg/mL (≈ 19.2 µM)
CO/N=C1\CN(c2nc3c(cc2F)c(=O)c(C(=O)O)cn3C2CC2)CC1CN (stereo not drawn) [Gemi]	–	–	–	–	–	–	–	–	–	0.03 µg/mL (≈ 0.077 µM)	0.125 µg/mL (≈ 0.321 µM)	0.125 µg/mL (≈ 0.321 µM)	0.25 µg/mL (≈ 0.642 µM)	0.25 µg/mL (≈ 0.642 µM)	0.5 µg/mL (≈ 1.28 µM)	0.5 µg/mL (≈ 1.28 µM)	0.5 µg/mL (≈ 1.28 µM)	1 µg/mL (≈ 2.57 µM)
N[C@@H]1[C@H]2CN(c3nc4c(cc3F)c(=O)c(C(=O)O)cn4-c3ccc(F)cc3F)C[C@@H]12 [Tro]	1 µg/mL	0.25 µg/mL	1 µg/mL	0.5 µg/mL	1 µg/mL	4 µg/mL	4 µg/mL	4 µg/mL	8 µg/mL	–	–	–	–	–	–	–	–	–
O=C(O)c1cn(C2CC2)c2cc(N3CCNCC3)c(F)cc2c1=O [Cip]	0.5 µg/mL	0.25 µg/mL	1 µg/mL	1 µg/mL	1 µg/mL	2 µg/mL	2 µg/mL	2 µg/mL	8 µg/mL	–	–	–	–	–	–	–	–	–
Cc1c(F)c(N2CCNC(C)C2)cc2c1c(=O)c(C(=O)O)cn2C1CC1 (stereo not drawn) [Gre]	0.25 µg/mL	0.5 µg/mL	0.5 µg/mL	2 µg/mL	1 µg/mL	1 µg/mL	1 µg/mL	1 µg/mL	4 µg/mL	–	–	–	–	–	–	–	–	–
